Source: patent EP2488529B1, “Spirocyclic derivatives as histone deacetylase inhibitors” (DAC S.r.l., priority 2009, dated 2011)

Tests used:
K562 = assay: Cell growth, CellTiter-Glo Luminescent Cell Viability Assay (antiproliferative assay); assay type: cell-based; conditions: Homo sapiens; K562 cells, incubated for 72 h
From the text: (§1) CellTiter-Glo® Luminescent Cell Viability Assay (Promega) is a homogeneous method of determining the number of viable cells in culture based on quantitation of the present ATP, which indicates the presence of metabolically active cells. The homogeneous assay procedure involves addition of a single reagent (CellTiter-Glo® Reagent) directly to the cells, which leads to cell lysis and generation of a luminescent signal proportional to the amount of the ATP and the number of cells present in culture. The assay relies on the properties of a proprietary thermostable luciferase (Ultra-Glo® recombinant luciferase), which generates a luminescent signal. K562, A549, and HCT-116 cells, in exponential growth, were incubated for 72 h with different concentrations of the inhibitors. After 72 h, a volume of CellTiter-Glo® Reagent equal to the volume of cell culture medium was added. The content was mixed for 2 min to induce cell lysis. The luminescence was recorded after further 10 min at RT in order to obtain a stable luminescent signal.
(§2) The IC50 was calculated using GraphPad Software.

HCT-116 = assay: as above; assay type: cell-based; conditions: Homo sapiens; HCT-116 cells, incubated for 72 h; read-out: HCT116 IC50
From the text: as §1, §2

A549 = assay: as above; assay type: cell-based; conditions: Homo sapiens; A549 cells, incubated for 72 h
From the text: as §1, §2

HDAC = assay: Assay of enzyme inhibition of HDAC (BIOMOL kit, fluorescence); assay type: biochemical; conditions: nuclear fraction of Hela cells; substrate 200 µM; 15 min at RT
Procedure: The in-vitro activity of HDAC inhibitors was assayed using a BIOMOL Kit, according to the instructions from the manufacturer (Biomolecular Research Laborator). 15 µl of 30 x diluted nuclear fraction of Hela cells, was diluted to 50 µl with the assay buffer containing the HDAC inhibitor and the substrate (lysine with acetylated amino group on the side chain) at a concentration of 200 µM. The samples were incubated for 15 min at RT and then exposed to a developer (10 min at RT). In this last step a fluorophore was produced, whose fluorescence was measured using an excitation wavelength of 355 nm and an emission at 460 nm. The IC50 was calculated using GraphPad Software.

| SMILES | IC50 (K562) [nM] | IC50 (HCT-116) [nM] | IC50 (A549) [nM] | IC50 (HDAC) [nM] |
| --- | --- | --- | --- | --- |
| O=C(/C=C/c1ccc2c(c1)C(=O)CC1(CCN(C(=O)c3ccccc3)C1)O2)NO (racemic) [Example 6, (±)-(E)-3-[1'-Benzoyl-4-oxo-spiro(chromane-2,3'-pyrrolidine)-6-yl]-N-hydroxy-acrylamide] | ≤ 1000 | ≤ 1000 | 1000 to 3000 | 100 to 1000 |
| CN1CCC2(CC(=O)c3cc(/C=C/C(=O)NO)ccc3O2)C1 (racemic) [Example 7, (±)-(E)-3-[1'-Methyl-4-oxo-spiro(chromane-2,3'-pyrrolidine)-6-yl]-N-hydroxy-acrylamide] | ≤ 1000 | ≤ 1000 | ≤ 1000 | 100 to 1000 |
| CCOC(=O)N1CCC2(CC(=O)c3cc(/C=C/C(=O)NO)ccc3O2)C1 (racemic) [Example 8, (±)-(E)-3-[1'-Ethyloxycarbonyl-4-oxo-spiro(chromane-2,3'-pyrrolidine)-6-yl]-N-hydroxy-acrylamide] | ≤ 1000 | ≤ 1000 | ≤ 1000 | 100 to 1000 |
| O=C(/C=C/c1ccc2c(c1)C(=O)CC1(CCN(Cc3ccc(F)cc3)C1)O2)NO (racemic) [Example 11, (±)-(E)-3-[1'-(4-Fluoro-benzyl)-4-oxo-spiro(chromane-2,3'-pyrrolidine)-6-yl]-N-hydroxy-acrylamide] | ≤ 1000 | ≤ 1000 | ≤ 1000 | 100 to 1000 |
| O=C(/C=C/c1ccc2c(c1)C(=O)CC1(CCCNC1)O2)NO (racemic) [Example 12, (±)-(E)-3-[4-Oxo-spiro(chromane-2,3'-piperidine)-6-yl]-N-hydroxy-acrylamide] | ≤ 1000 | ≤ 1000 | ≤ 1000 | 100 to 1000 |
| CN1CCCC2(CC(=O)c3cc(/C=C/C(=O)NO)ccc3O2)C1 (racemic) [Example 14, (±)-(E)-3-[1'-Methyl-4-oxo-spiro(chromane-2,3'-piperidine)-6-yl]-N-hydroxy-acrylamide] | ≤ 1000 | ≤ 1000 | ≤ 1000 | 100 to 1000 |
| CCOC(=O)N1CCCC2(CC(=O)c3cc(/C=C/C(=O)NO)ccc3O2)C1 (racemic) [Example 15, (±)-(E)-3-[1'-Ethyloxycarbonyl-4-oxo-spiro(chromane-2,3'-piperidine)-6-yl]-N-hydroxy-acrylamide] | ≤ 1000 | ≤ 1000 | 1000 to 3000 | 100 to 1000 |
| CC(=O)N1CCCC2(CC(=O)c3cc(/C=C/C(=O)NO)ccc3O2)C1 (racemic) [Example 16, (±)-(E)-3-[1'-Acetyl-4-oxo-spiro(chromane-2,3'-piperidine)-6-yl]-N-hydroxy-acrylamide] | ≥ 3000 | ≥ 3000 | ≥ 3000 | 100 to 1000 |
| O=C(/C=C/c1ccc2c(c1)C(=O)CC1(CCCN(C(=O)c3ccccc3)C1)O2)NO (racemic) [Example 21, (±)-(E)-3-[1'-Benzoyl-4-oxo-spiro(chromane-2,3'-piperidine)-6-yl]-N-hydroxy-acrylamide] | 1000 to 3000 | 1000 to 3000 | ≥ 3000 | 100 to 1000 |
| O=C(/C=C/c1ccc2c(c1)C(=O)CC1(CCCNCC1)O2)NO (racemic) [Example 22, (±)-(E)-3-[4-Oxo-spiro(chromane-2,4'-azepane)-6-yl]-N-hydroxy-acrylamide] | ≥ 3000 | 1000 to 3000 | ≥ 3000 | 100 to 1000 |
| CC(=O)N1CCCC2(CC1)CC(=O)c1cc(/C=C/C(=O)NO)ccc1O2 (racemic) [Example 24, (±)-(E)-3-[1'-Acetyl-4-oxo-spiro(chromane-2,4'-azepane)-6-yl]-N-hydroxy-acrylamide] | ≥ 3000 | ≥ 3000 | ≥ 3000 | 100 to 1000 |
| O=C(/C=C/c1ccc2c(c1)C(=O)CC1(CCCN(C(=O)c3ccccc3)CC1)O2)NO (racemic) [Example 25, (±)-(E)-3-[1'-Benzoyl-4-oxo-spiro(chromane-2,4'-azepane)-6-yl]-N-hydroxy-acrylamide] | 1000 to 3000 | ≤ 1000 | ≥ 3000 | 100 to 1000 |
| CN1CCCC2(CC1)CC(=O)c1cc(/C=C/C(=O)NO)ccc1O2 (racemic) [Example 26, (±)-(E)-3-[1'-Methyl-4-oxo-spiro(chromane-2,4'-azepane)-6-yl]-N-hydroxy-acrylamide] | ≤ 1000 | ≤ 1000 | ≤ 1000 | 100 to 1000 |
| CCOC(=O)N1CCCC2(CC1)CC(=O)c1cc(/C=C/C(=O)NO)ccc1O2 (racemic) [Example 27, (±)-(E)-3-[1'-Ethyloxycarbonyl-4-oxo-spiro(chromane-2,4'-azepane)-6-yl]-N-hydroxy-acrylamide] | 1000 to 3000 | 1000 to 3000 | ≥ 3000 | 100 to 1000 |
| Cn1cc(CN2CCCC3(CC2)CC(=O)c2cc(/C=C/C(=O)NO)ccc2O3)c2ccccc21 (racemic) [Example 47, (±)-(E)-3-[1'-(1-Methyl-1H-indol-3-ylmethyl)-4-oxo-spiro(chromane-2,4'-azepane)-6-yl]-N-hydroxy-acrylamide] |  |  |  | 100 to 1000 |
| CCN1CCCC2(CC(=O)c3cc(/C=C/C(=O)NO)ccc3O2)C1 (racemic) [Example 48, (±)-(E)-3-[1'-Ethyl-4-oxo-spiro(chromane-2,3'-piperidine)-6-yl]-N-hydroxy-acrylamide] |  |  |  | 100 to 1000 |

Further lines, results first:

| IC50 (K562) [nM] | IC50 (HCT-116) [nM] | IC50 (A549) [nM] | IC50 (HDAC) [nM] | SMILES |
| --- | --- | --- | --- | --- |
| ≥ 3000 | 1000 to 3000 | 1000 to 3000 | 100 to 1000 | O=C(/C=C/c1ccc2c(c1)C(=O)CC1(CCNC1)O2)NO (racemic) [Example 1, (±)-(E)-3-[4-Oxo-spiro(chromane-2,3'-pyrrolidine)-6-yl]-N-hydroxy-acrylamide] |
| ≤ 1000 | ≤ 1000 | ≤ 1000 | ≤ 100 | O=C(/C=C/c1ccc2c(c1)C(=O)CC1(CCN(Cc3ccccc3)C1)O2)NO (racemic) [Example 2, (±)-(E)-3-[1'-Benzyl-4-oxo-spiro(chromane-2,3'-pyrrolidine)-6-yl]-N-hydroxy-acrylamide] |
| ≥ 3000 | ≥ 3000 | ≥ 3000 | 100 to 1000 | CC(=O)N1CCC2(CC(=O)c3cc(/C=C/C(=O)NO)ccc3O2)C1 (racemic) [Example 5, (±)-(E)-3-[1'-Acetyl-4-oxo-spiro(chromane-2,3'-pyrrolidine)-6-yl]-N-hydroxy-acrylamide] |
| ≤ 1000 | ≤ 1000 | ≤ 1000 | ≤ 100 | O=C(/C=C/c1ccc2c(c1)C(=O)CC1(CCN(CCc3ccccc3)C1)O2)NO (racemic) [Example 9, (±)-(E)-3-[1'-(2-Phenyl-ethyl)-4-oxo-spiro(chromane-2,3'-pyrrolidine)-6-yl]-N-hydroxy-acrylamide] |
| ≤ 1000 | ≤ 1000 | ≤ 1000 | ≤ 100 | Cn1cc(CN2CCC3(CC(=O)c4cc(/C=C/C(=O)NO)ccc4O3)C2)c2ccccc21 (racemic) [Example 10, (±)-(E)-3-[1'-(1-Methyl-1H-indol-3-ylmethyl)-4-oxo-spiro(chromane-2,3'-pyrrolidine)-6-yl]-N-hydroxy-acrylamide] |
| ≤ 1000 | ≤ 1000 | ≤ 1000 | ≤ 100 | O=C(/C=C/c1ccc2c(c1)C(=O)CC1(CCCN(Cc3ccccc3)C1)O2)NO (racemic) [Example 13, (±)-(E)-3-[1'-Benzyl-4-oxo-spiro(chromane-2,3'-piperidine)-6-yl]-N-hydroxy-acrylamide] |
| ≤ 1000 | ≤ 1000 | 1000 to 3000 | ≤ 100 | O=C(/C=C/c1ccc2c(c1)C(=O)CC1(CCCN(Cc3ccc(F)cc3)C1)O2)NO (racemic) [Example 19, (±)-(E)-3-[1'-(4-Fluoro-benzyl)-4-oxo-spiro(chromane-2,3'-piperidine)-6-yl]-N-hydroxy-acrylamide] |
| ≤ 1000 | ≤ 1000 | ≤ 1000 | ≤ 100 | O=C(/C=C/c1ccc2c(c1)C(=O)CC1(CCCN(CCc3ccccc3)C1)O2)NO (racemic) [Example 20, (±)-(E)-3-[1'-(2-Phenyl-ethyl)-4-oxo-spiro(chromane-2,3'-piperidine)-6-yl]-N-hydroxy-acrylamide] |
| ≤ 1000 | ≤ 1000 | ≤ 1000 | ≤ 100 | O=C(/C=C/c1ccc2c(c1)C(=O)CC1(CCCN(Cc3ccccc3)CC1)O2)NO (racemic) [Example 23, (±)-(E)-3-[1'-Benzyl-4-oxo-spiro(chromane-2,4'-azepane)-6-yl]-N-hydroxy-acrylamide] |
| ≤ 1000 | ≤ 1000 | ≤ 1000 | ≤ 100 | O=C(/C=C/c1ccc2c(c1)C(=O)CC1(CCCN(CCc3ccccc3)CC1)O2)NO (racemic) [Example 28, (±)-(E)-3-[1'-(2-Phenyl-ethyl)-4-oxo-spiro(chromane-2,4'-azepane)-6-yl]-N-hydroxy-acrylamide] |
